Measured values taken from paper PMC12385147, “Discovery of Novel 2-Substituted Aniline Pyrimidine Based Derivatives as Potent Mer/c-Met Dual Inhibitors with Improvement Bioavailability” (Biomolecules, 2025).
Like-named read-outs stand apart in the source and are kept apart here.

Tests used:
HCT116 cells [1] = assay: Transwell migration assay of HCT116 cells; type: cell-based; settings: 24 h
Experimental: Migration assays were conducted using Transwell® inserts (Costar, Cambridge, MA, USA) with an 8 μm pore size polycarbonate membrane. HCT116 cells (1.5 × 10^5) were seeded into the upper chamber with serum-free medium containing 0.2% BSA, while the lower chamber contained medium supplemented with 15% FBS. Compound 17c was applied at the specified concentrations to both sides of the membrane. After 24 h of incubation at 37 °C, the cells were fixed in methanol and stained with 0.1% crystal violet. Non-migrated cells on the upper surface of the membrane were removed using a cotton swab. Five random fields per well were imaged under brightfield microscopy, and the number of migrated cells was quantified using ImageJ software (1.53c). Each experiment was performed in triplicate.

[2] = Plasma protein binding, equilibrium dialysis, human plasma; type: in vitro ADME; settings: for fraction unbound at 6 h, 1 μM: human, plasma
HCT116 cells [3] = assay: TUNEL apoptosis assay in HCT116 cells; type: cell-based; settings: 48 h
Experimental: Apoptosis was analyzed in a dose-dependent manner using the One Step TUNEL Apoptosis Assay Kit (Meilunbio, Dalian, China). HCT116 cells (1.5 × 10^4 cells/well) were seeded onto TC-treated glass coverslips in 24-well plates and incubated for 24 h. Following this, the cells were exposed to varying concentrations of compound 17c for 48 h. After treatment, the cells were fixed with 4% paraformaldehyde and permeabilized with 0.3% Triton-X-100. TUNEL staining was performed as per the manufacturer’s guidelines, with DAPI used for nuclear counterstaining. Fluorescent images were obtained using an Olympus microscope. The ED50 value for compound 17c was calculated using GraphPad PRISM 9.5. Each assay was performed in triplicate and repeated three times for consistency.

PC-3 prostate cancer = assay: Antiproliferation CCK-8 assay, PC-3; type: cell-based
[4] = Pharmacokinetics in SD rats; type: in vivo; settings: rat; for MRT inf: read-out: MRTINF_obs
Experimental: Male and female SD rats (SLRC Laboratory Animal Inc., Shanghai, China) were used for the study. In the oral (PO) administration, 3 rats per group were given a single 10 mg/kg dose. Blood samples (100 μL per time point) were collected via jugular vein cannula and taken at 5, 15, and 30 min, and 1, 2, 4, 8, and 24 h post-dose. For the intravenous (IV) administration, 3 rats per group received 2.0 mg/kg, and blood samples were collected at 5, 15, and 30 min, and 1, 2, and 4 h after dosing. Rats were fasted overnight prior to dosing and remained fasted for 6 h post-dose. Plasma was separated by centrifugation and stored at –40 °C until analysis. Compound concentrations were determined by LC/MS/MS (Shimadzu LC-30AD), and pharmacokinetic parameters, including Cmax, Tmax, T1/2, and AUC0-inf, were calculated.

[5] = Plasma protein binding, equilibrium dialysis, rat plasma; type: in vitro ADME
hERG potassium channel = hERG potassium channel (Homo sapiens, UniProt Q12809); assay: hERG potassium channel QPatch automated patch clamp in CHO cells
Sequence of hERG potassium channel (Q12809 whole entry): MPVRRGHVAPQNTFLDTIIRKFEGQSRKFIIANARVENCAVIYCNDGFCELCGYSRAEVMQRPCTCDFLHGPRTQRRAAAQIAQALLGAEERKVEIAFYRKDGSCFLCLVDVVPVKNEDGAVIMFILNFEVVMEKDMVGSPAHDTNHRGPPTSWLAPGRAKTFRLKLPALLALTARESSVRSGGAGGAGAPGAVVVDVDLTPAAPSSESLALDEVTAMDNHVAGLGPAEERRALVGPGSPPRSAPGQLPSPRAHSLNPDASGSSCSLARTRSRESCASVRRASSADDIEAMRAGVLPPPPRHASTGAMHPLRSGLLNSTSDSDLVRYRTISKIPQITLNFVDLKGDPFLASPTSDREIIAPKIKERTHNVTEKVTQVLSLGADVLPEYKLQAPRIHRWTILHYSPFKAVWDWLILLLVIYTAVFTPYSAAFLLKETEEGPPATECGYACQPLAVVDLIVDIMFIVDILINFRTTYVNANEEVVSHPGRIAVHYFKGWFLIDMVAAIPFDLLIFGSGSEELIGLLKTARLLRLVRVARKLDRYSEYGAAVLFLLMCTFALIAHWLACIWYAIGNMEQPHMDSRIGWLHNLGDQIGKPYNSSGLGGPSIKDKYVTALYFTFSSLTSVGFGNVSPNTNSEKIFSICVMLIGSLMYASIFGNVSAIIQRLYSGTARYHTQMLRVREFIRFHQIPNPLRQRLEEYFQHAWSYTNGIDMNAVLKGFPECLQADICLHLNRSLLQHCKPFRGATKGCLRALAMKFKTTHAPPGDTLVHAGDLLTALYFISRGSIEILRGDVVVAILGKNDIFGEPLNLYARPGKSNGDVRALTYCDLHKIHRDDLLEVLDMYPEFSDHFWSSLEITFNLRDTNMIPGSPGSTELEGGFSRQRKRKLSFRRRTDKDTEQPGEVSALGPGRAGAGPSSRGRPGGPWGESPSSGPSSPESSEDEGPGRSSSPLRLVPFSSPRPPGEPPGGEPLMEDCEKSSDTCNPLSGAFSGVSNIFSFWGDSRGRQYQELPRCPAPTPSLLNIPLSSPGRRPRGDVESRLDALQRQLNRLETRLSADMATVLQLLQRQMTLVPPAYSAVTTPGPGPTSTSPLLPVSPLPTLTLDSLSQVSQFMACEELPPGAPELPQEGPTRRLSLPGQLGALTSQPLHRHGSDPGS

Mer kinase = biological target: T1, Mer kinase (Homo sapiens, UniProt Q12866); assay: Mer kinase inhibition assay (TK-Sub-Biotin / cryptate detection); type: biochemical; settings: means from three independent experiments
T1 construct: purchased Invitrogen (Shanghai, China)
T1 sequence (Q12866 21-999): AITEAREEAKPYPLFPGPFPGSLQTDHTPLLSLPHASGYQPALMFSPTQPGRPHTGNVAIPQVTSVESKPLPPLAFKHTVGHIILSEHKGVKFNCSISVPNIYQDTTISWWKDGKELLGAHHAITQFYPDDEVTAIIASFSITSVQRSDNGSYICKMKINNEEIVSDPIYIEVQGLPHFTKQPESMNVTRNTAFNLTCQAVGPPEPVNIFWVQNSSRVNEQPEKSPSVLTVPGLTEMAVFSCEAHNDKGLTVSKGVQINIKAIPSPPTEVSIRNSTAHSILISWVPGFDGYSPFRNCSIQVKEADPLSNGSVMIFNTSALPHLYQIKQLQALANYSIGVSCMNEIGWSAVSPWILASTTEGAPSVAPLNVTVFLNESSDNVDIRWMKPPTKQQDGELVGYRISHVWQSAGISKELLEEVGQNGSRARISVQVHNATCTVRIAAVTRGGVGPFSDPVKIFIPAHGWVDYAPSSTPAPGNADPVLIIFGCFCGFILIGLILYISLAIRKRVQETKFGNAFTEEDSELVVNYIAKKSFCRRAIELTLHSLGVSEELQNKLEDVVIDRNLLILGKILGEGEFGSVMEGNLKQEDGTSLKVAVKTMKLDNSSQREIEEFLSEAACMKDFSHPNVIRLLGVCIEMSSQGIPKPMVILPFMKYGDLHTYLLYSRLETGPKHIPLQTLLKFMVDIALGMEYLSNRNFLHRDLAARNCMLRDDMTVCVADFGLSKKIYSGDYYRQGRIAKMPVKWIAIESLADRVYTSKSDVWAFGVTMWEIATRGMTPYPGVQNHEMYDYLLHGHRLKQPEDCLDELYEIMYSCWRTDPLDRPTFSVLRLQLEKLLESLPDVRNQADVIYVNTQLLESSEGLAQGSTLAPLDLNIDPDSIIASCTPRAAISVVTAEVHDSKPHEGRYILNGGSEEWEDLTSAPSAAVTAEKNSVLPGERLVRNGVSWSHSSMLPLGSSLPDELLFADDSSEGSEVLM

MDA-MB-231 = assay: Antiproliferation CCK-8 assay, MDA-MB-231; type: cell-based; settings: Homo sapiens, CCK-8, 72 h
Experimental: The HepG2, MDA-MB-231, and HCT116 cell lines were derived from our own laboratory (the laboratory of our collaborator, Dr. Xiaolei Zhou, at College of Food Science and Biology in Hebei University of Science and Technology). The antiproliferative activities were assessed using the CCK-8 assay. Cell viability was measured according to the manufacturer’s instructions for the Cell Counting Kit-8 (Meilunbio, Dalian, China). In this assay, 2.5 × 10^3 cells per well were seeded into 96-well plates.
After an initial 12 h incubation, cancer cells were exposed to varying concentrations of compound 17c for 72 h. Following CCK-8 solution addition and 2 h incubation, the absorbance at 450 nm was measured using a BioTek Synergy HTX microplate reader. Experiments included triplicate wells with three independent replicates. The IC50 values for compound 17c were derived from an analysis of the dose–response curves in GraphPad PRISM 9.5.

[6] = both sexes, plasma, iv, SD rats, 2 mg/kg
[7] = both sexes, plasma, po, SD rats, 10 mg/kg

Stability (%) ([2]; human plasma, 1 μM, 6 h at 37 °C): 99.3%
fraction unbound at 6 h, 1 μM ([2]; human plasma, 1 μM, fraction, read-out: Mean Fu): 0.0158
fraction unbound at 6 h, 1 μM ([2]; human plasma, 1 μM, read-out: Mean Fb (PPB) (converted)): 0.016
plasma protein-binding affinity ([2]; species not stated (abstract)): > 95%
IC50 (PC-3 prostate cancer; Homo sapiens, PC-3, CCK-8, read-out: IC50 PC-3 cells): 3790 ± 1090 nM
AUC(0-t) [4, 6]: 2150 ng·h/mL
half-life [4, 6]: 3.33 h
clearance ([4]; both sexes, plasma, iv, SD rats, i.v., 2 mg/kg, read-out: CL_obs): 16.4 mL/min/kg
MRT inf ([4]; both sexes, plasma, iv, SD rats, i.v., 2 mg/kg): 3.23 h
bioavailability ([4]; both sexes, plasma, oral, SD rats, p.o. 10 mg/kg vs i.v. 2 mg/kg, read-out: F (oral bioavailability)): 45.3%
AUC(0-t) [4, 7]: 4630 ng·h/mL
Cmax [4, 7]: 740 ng/mL
Tmax [4, 7]: 4 h
half-life [4, 7]: 3.46 h
MRT inf ([4]; both sexes, plasma, po, SD rats, p.o., 10 mg/kg): 6.52 h
oral bioavailability, fold higher than 18c ([4]; in vivo, po): 16 fold
Mean Fb ([5]; 1 μM): 98.2%
Stability (%) ([5]; 1 μM, 6 h at 37 °C): 102.2%
fraction unbound at 6 h, 1 μM ([5]; fraction, read-out: Mean Fu): 0.0178
IC50 (Mer kinase): 6.4 ± 1.8 nM
IC50 (MDA-MB-231): 2310 ± 670 nM
Compound: Cc1c(C(=O)Nc2ccc(Oc3ccnc(Nc4cccc(OC5CCN(C)CC5)c4)n3)cc2)c(=O)n(-c2ccccc2)n1C [compound 17c, 1,5-dimethyl-N-(4-((2-((3-((1-methylpiperidin-4-yl)oxy)phenyl)amino)pyrimidin-4-yl)oxy)phenyl)-3-oxo-2-phenyl-2,3-dihydro-1H-pyrazole-4-carboxamide]
inhibition of HCT116 cell migration (HCT116 cells [1]): effectively inhibits the migration capacity
ED50 apoptosis (TUNEL-positive cells) (HCT116 cells [3]): 2036 nM
times more effective than cabozantinib (PC-3 prostate cancer; PC-3 cells): 4.1 times
IC50 (hERG potassium channel): > 40000 nM
